Assay results reported in patent US7935670B2, “Hepatitis C virus inhibitors” (Bristol-Myers Squibb Company, priority 2006, dated 2011).
Read-outs that look alike come from different tables or passages of the source.

How the values were obtained:
[1] = tested on: HCV replicon (Renilla luciferase reporter) in HUH-7 cells; assay: HCV replicon luciferase reporter assay; assay type: cell-based, HCV strain 1b; conditions: Huh-7, 96 h, 4 days
human liver cathepsin B = target: T1, human liver cathepsin B (Homo sapiens, UniProt P07858); assay: Specificity assay, cathepsin B; assay type: biochemical; conditions: 2 h enzyme-inhibitor pre-incubation
T1 construct: purchased Sigma; host or cells: human liver (by name)
Procedure: The specificities of compounds of the present disclosure were determined against a variety of serine proteases: human neutrophil elastase (HNE), porcine pancreatic elastase (PPE) and human pancreatic chymotrypsin and one cysteine protease: human liver cathepsin B. In all cases a 96-well plate format protocol using colorimetric p-nitroaniline (pNA) substrate specific for each enzyme was used as described previously (PCT Patent Application No. WO 00/09543) with some modifications to the serine protease assays. All enzymes were purchased from Sigma while the substrates were from Bachem.
Each assay included a 2 h enzyme-inhibitor pre-incubation at room temperature followed by addition of substrate and hydrolysis to ˜30% conversion as measured on a Spectramax Pro microplate reader. Compound concentrations varied from 100 to 0.4 μM depending on their potency.
100 mM NaHPO4 (Sodium Hydrogen Phosphate) pH 6, 0.1 mM EDTA, 3% DMSO, 1 mM TCEP (Tris(2-carboxyethyl)phosphine hydrochloride), 0.01% Tween-20, 30 μM Z-FR-pNA and 5 nM Cathepsin B (enzyme stock activated in buffer containing 20 mM TCEP before use).
The percentage of inhibition was calculated using the formula: [1−((UVinh−UVblank)/(UVctl−UVblank))]×100
A non-linear curve fit was applied to the inhibition-concentration data, and the 50% effective concentration (IC50) was calculated by the use of Excel Xl-fit software.

[2] = tested on: HCV replicon in HUH-7 cells; assay: HCV replicon FRET assay; assay type: cell-based, HCV strain 1b; conditions: Hepatitis C virus
Source text: An HCV replicon whole cell system was established as described by Lohmann V, Korner F, Koch J, Herian U, Theilmann L, Bartenschlager R., Science 285(5424): 110-3 (1999). This system enabled us to evaluate the effects of our HCV Protease compounds on HCV RNA replication. Briefly, using the HCV strain 1b sequence described in the Lohmann paper (Assession number: AJ238799), an HCV cDNA was synthesized by Operon Technologies, Inc. (Alameda, Calif.), and the full-length replicon was then assembled in plasmid pGem9zf(+) (Promega, Madison, Wis.) using standard molecular biology techniques. The replicon consists of (i) the HCV 5′ UTR fused to the first 12 amino acids of the capsid protein, (ii) the neomycin phosphotransferase gene (neo), (iii) the IRES from encephalomyocarditis virus (EMCV), and (iv) HCV NS3 to NS5B genes and the HCV 3′ UTR. Plasmid DNAs were linearized with ScaI and RNA transcripts were synthesized in vitro using the T7 MegaScript transcription kit (Ambion, Austin, Tex.) according to manufacturer's directions. In vitro transcripts of the cDNA were transfected into the human hepatoma cell line, HUH-7. […] Resulting cell lines were characterized for positive and negative strand RNA production and protein production over time.
The HCV replicon FRET assay was developed to monitor the inhibitory effects of compounds described in the disclosure on HCV viral replication. HUH-7 cells, constitutively expressing the HCV replicon, were grown in Dulbecco's Modified Eagle Media (DMEM) (Gibco-BRL) containing 10% Fetal calf serum (FCS) (Sigma) and 1 mg/ml G418 (Gibco-BRL). Cells were seeded the night before (1.5×10^4 cells/well) in 96-well tissue-culture sterile plates. Compound and no compound controls were prepared in DMEM containing 4% FCS, 1:100 Penicillin/Streptomysin (Gibco-BRL), 1:100 L-glutamine and 5% DMSO in the dilution plate (0.5% DMSO final concentration in the assay). Compound/DMSO mixes were added to the cells and incubated for 4 days at 37° C. After 4 days, cells were first assessed for cytotoxicity using alamar Blue (Trek Diagnotstic Systems) for a CC50 reading. The toxicity of compound (CC50) was determined by adding 1/10th volume of alamar Blue to the media incubating the cells. After 4 h, the fluorescence signal from each well was read, with an excitation wavelength at 530 nm and an emission wavelength of 580 nm, using the Cytofluor Series 4000 (Perspective Biosystems). Plates were then rinsed thoroughly with Phosphate-Buffered Saline (PBS) (3 times 150 μl). The cells were lysed with 25 μl of a lysis assay reagent containing an HCV protease substrate (5× cell Luciferase cell culture lysis reagent (Promega #E153A) diluted to 1× with distilled water, NaCl added to 150 mM final, the FRET peptide substrate (as described for the enzyme assay above) diluted to 10 μM final from a 2 mM stock in 100% DMSO. The plate was then placed into the Cytofluor 4000 instrument which had been set to 340 nm excitation/490 nm emission, automatic mode for 21 cycles and the plate read in a kinetic mode. EC50 determinations were carried out as described for the IC50 determinations.

Compound: C=C[C@@H]1C[C@]1(NC(=O)[C@@H]1C[C@@H](OC(=O)c2ccccc2)CN1C(=O)[C@@H](NC(=O)OC(C)(C)C)C(C)(C)C)C(=O)NS(=O)(=O)C1CC1 [Compound 1]
- EC50 [1]: 0.051 µM
- IC50 (human liver cathepsin B): > 50 µM
- EC50 ([2]; 96 h, HUH-7 replicon cells, 4 days, read-out: EC50 in the replicon FRET assay): 0.484 µM
- EC50 ([2]; Huh-7, read-out: Activity Range (EC50)): 0.2 to 1 µM
